Measured values published in patent publication US11945813B2, “5-substituted 4-amino-1H-benzo[c][1,2,6]thiadiazine 2,2-dioxides and formulations and uses thereof” (Firmenich Incorporated, priority 2018, dated 2024).

Biological target: T1, T1R2/T1R3 taste receptor (Homo sapiens, UniProt Q8TE23)
T1 sequence (Q8TE23 20-839): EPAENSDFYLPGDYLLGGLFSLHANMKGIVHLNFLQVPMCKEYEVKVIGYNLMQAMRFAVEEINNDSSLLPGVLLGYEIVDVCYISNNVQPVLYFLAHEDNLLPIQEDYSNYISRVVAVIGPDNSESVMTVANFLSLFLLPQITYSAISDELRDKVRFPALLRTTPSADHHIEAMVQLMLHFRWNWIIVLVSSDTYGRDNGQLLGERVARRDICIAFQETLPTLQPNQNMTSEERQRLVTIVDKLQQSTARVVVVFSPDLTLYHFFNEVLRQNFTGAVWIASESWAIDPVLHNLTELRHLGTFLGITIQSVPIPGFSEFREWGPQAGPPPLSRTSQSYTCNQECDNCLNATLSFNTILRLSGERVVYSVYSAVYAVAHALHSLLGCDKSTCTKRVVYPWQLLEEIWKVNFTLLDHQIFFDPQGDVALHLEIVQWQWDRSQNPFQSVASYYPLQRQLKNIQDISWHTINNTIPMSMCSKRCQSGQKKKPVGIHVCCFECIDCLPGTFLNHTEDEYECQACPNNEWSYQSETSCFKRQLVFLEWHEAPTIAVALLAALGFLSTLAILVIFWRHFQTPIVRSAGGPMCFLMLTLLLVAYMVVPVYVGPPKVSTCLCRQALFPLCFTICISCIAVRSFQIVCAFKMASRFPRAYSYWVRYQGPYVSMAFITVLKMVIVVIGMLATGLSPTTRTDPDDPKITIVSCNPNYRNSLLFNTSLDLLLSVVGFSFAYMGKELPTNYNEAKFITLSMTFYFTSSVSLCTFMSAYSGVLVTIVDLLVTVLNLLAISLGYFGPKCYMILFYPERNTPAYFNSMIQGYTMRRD
T1 sequence (Q7RTX0 21-852 partner): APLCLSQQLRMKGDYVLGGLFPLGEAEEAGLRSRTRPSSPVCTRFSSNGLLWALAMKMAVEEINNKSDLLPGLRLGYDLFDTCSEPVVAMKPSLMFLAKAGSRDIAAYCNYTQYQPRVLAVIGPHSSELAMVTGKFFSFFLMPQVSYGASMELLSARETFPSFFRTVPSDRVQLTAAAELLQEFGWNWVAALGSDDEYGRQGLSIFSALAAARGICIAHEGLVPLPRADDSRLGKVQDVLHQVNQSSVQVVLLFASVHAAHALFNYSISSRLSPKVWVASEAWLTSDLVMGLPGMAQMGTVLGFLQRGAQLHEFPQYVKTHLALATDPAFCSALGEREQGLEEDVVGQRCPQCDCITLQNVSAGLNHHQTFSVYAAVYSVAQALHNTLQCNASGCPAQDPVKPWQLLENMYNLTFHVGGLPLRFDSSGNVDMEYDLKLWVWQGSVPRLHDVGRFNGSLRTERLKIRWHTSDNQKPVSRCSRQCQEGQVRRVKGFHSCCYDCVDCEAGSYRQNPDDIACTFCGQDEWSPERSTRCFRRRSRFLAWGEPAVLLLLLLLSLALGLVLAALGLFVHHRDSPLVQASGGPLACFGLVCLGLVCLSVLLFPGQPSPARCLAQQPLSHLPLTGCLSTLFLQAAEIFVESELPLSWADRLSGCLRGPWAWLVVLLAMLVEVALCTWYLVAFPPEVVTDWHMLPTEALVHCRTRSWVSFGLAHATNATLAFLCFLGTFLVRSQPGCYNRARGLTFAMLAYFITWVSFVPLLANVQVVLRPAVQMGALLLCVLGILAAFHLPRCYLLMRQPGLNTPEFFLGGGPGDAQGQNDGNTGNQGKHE
Assay: Receptor-based assay: sweetener EC50 alone and with test compound (enhancement ratio)
Assay type: cell-based
Settings: for Fructose Enhancement EC50 Ratio: sweetener fructose; for Sucralose Enhancement EC50 Ratio: sweetener sucralose; for Sucrose Enhancement EC50 Ratio: sweetener sucrose
Summary of the method: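 Sucrose, sucralose or fructose EC50 measured on human T1R2/T1R3, alone and with 3, 10 or 50 μM test compound. Enhancement is the EC50 ratio without/with compound, binned A >20, B 10-20, C >1 to <10.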

Row | SMILES | Fructose Enhancement EC50 Ratio (10 μM test compound) | Fructose Enhancement EC50 Ratio (50 μM test compound) | Sucralose Enhancement EC50 Ratio (10 μM test compound) | Sucralose Enhancement EC50 Ratio (50 μM test compound) | Sucrose Enhancement EC50 Ratio (3 μM test compound) | Sucrose Enhancement EC50 Ratio (10 μM test compound) | Sucrose Enhancement EC50 Ratio (50 μM test compound)
1 | NC1=NS(=O)(=O)Nc2cccc(OC[C@H]3CCCN(c4cccc(C(=O)N5CCCC5)n4)C3)c21 [Compound 412] | C (A “C” value indicates an enhancement ratio greater than 1 and less than 10) | C (A “C” value indicates an enhancement ratio greater than 1 and less than 10) | A (An “A” value indicates an enhancement ratio of greater than 20) | A (An “A” value indicates an enhancement ratio of greater than 20) | C (A “C” value indicates an enhancement ratio greater than 1 and less than 10) | C (A “C” value indicates an enhancement ratio greater than 1 and less than 10) | B (A “B” value indicates an enhancement ratio from 10 to 20)
2 | NC1=NS(=O)(=O)Nc2cccc(OC[C@H]3CCCN(c4cccc(C(=O)N5CCCCC5)n4)C3)c21 [Compound 413] |  | C (A “C” value indicates an enhancement ratio greater than 1 and less than 10) | B (A “B” value indicates an enhancement ratio from 10 to 20) | A (An “A” value indicates an enhancement ratio of greater than 20) | C (A “C” value indicates an enhancement ratio greater than 1 and less than 10) | C (A “C” value indicates an enhancement ratio greater than 1 and less than 10) | C (A “C” value indicates an enhancement ratio greater than 1 and less than 10)
3 | NC1=NS(=O)(=O)Nc2cccc(OC[C@H]3CCCN(c4cccc(C(=O)N5CCOCC5)n4)C3)c21 [Compound 414] | C (A “C” value indicates an enhancement ratio greater than 1 and less than 10) | C (A “C” value indicates an enhancement ratio greater than 1 and less than 10) | A (An “A” value indicates an enhancement ratio of greater than 20) |  | C (A “C” value indicates an enhancement ratio greater than 1 and less than 10) | C (A “C” value indicates an enhancement ratio greater than 1 and less than 10) | B (A “B” value indicates an enhancement ratio from 10 to 20)
4 | CN1CCN(C(=O)c2cccc(N3CCC[C@H](COc4cccc5c4C(N)=NS(=O)(=O)N5)C3)n2)CC1 [Compound 415] | C (A “C” value indicates an enhancement ratio greater than 1 and less than 10) | C (A “C” value indicates an enhancement ratio greater than 1 and less than 10) |  | A (An “A” value indicates an enhancement ratio of greater than 20) | C (A “C” value indicates an enhancement ratio greater than 1 and less than 10) | C (A “C” value indicates an enhancement ratio greater than 1 and less than 10) | C (A “C” value indicates an enhancement ratio greater than 1 and less than 10)
5 | CC(C)CNC(=O)c1cccc(N2CCC[C@H](COc3cccc4c3C(N)=NS(=O)(=O)N4)C2)n1 [Compound 416] |  | C (A “C” value indicates an enhancement ratio greater than 1 and less than 10) | A (An “A” value indicates an enhancement ratio of greater than 20) | A (An “A” value indicates an enhancement ratio of greater than 20) | C (A “C” value indicates an enhancement ratio greater than 1 and less than 10) | C (A “C” value indicates an enhancement ratio greater than 1 and less than 10) | B (A “B” value indicates an enhancement ratio from 10 to 20)
6 | NC1=NS(=O)(=O)Nc2cccc(OC[C@H]3CCCN(c4cccc(C(=O)NCC5CC5)n4)C3)c21 [Compound 417] |  | C (A “C” value indicates an enhancement ratio greater than 1 and less than 10) | A (An “A” value indicates an enhancement ratio of greater than 20) | A (An “A” value indicates an enhancement ratio of greater than 20) | C (A “C” value indicates an enhancement ratio greater than 1 and less than 10) | C (A “C” value indicates an enhancement ratio greater than 1 and less than 10) | C (A “C” value indicates an enhancement ratio greater than 1 and less than 10)
7 | NC1=NS(=O)(=O)Nc2cccc(OC[C@H]3CCCN(c4cccc(C(=O)NCC5CCCCC5)n4)C3)c21 [Compound 418] |  |  | B (A “B” value indicates an enhancement ratio from 10 to 20) | A (An “A” value indicates an enhancement ratio of greater than 20) | C (A “C” value indicates an enhancement ratio greater than 1 and less than 10) | C (A “C” value indicates an enhancement ratio greater than 1 and less than 10) | C (A “C” value indicates an enhancement ratio greater than 1 and less than 10)
8 | CNC(=O)c1ccc(N2CCC[C@H](COc3cccc4c3C(N)=NS(=O)(=O)N4)C2)nc1 [Compound 500] |  |  | A (An “A” value indicates an enhancement ratio of greater than 20) | A (An “A” value indicates an enhancement ratio of greater than 20) | C (A “C” value indicates an enhancement ratio greater than 1 and less than 10) | C (A “C” value indicates an enhancement ratio greater than 1 and less than 10) | C (A “C” value indicates an enhancement ratio greater than 1 and less than 10)
9 | CCNC(=O)c1ccc(N2CCC[C@H](COc3cccc4c3C(N)=NS(=O)(=O)N4)C2)nc1 [Compound 501] | C (A “C” value indicates an enhancement ratio greater than 1 and less than 10) | C (A “C” value indicates an enhancement ratio greater than 1 and less than 10) | A (An “A” value indicates an enhancement ratio of greater than 20) | A (An “A” value indicates an enhancement ratio of greater than 20) | C (A “C” value indicates an enhancement ratio greater than 1 and less than 10) | C (A “C” value indicates an enhancement ratio greater than 1 and less than 10) | C (A “C” value indicates an enhancement ratio greater than 1 and less than 10)
10 | CCCNC(=O)c1ccc(N2CCC[C@H](COc3cccc4c3C(N)=NS(=O)(=O)N4)C2)nc1 [Compound 502] | C (A “C” value indicates an enhancement ratio greater than 1 and less than 10) | C (A “C” value indicates an enhancement ratio greater than 1 and less than 10) | A (An “A” value indicates an enhancement ratio of greater than 20) | A (An “A” value indicates an enhancement ratio of greater than 20) | C (A “C” value indicates an enhancement ratio greater than 1 and less than 10) | C (A “C” value indicates an enhancement ratio greater than 1 and less than 10) | C (A “C” value indicates an enhancement ratio greater than 1 and less than 10)
